Results on 32 sequences are retold here after the OligoGym collection.

After the bases stand the sugars from the 5' end (letter, count) and the backbone: PS all phosphorothioate, else s phosphorothioate and o phosphodiester by linkage. Methylation of C is not given here. e = 2'-O-(2-methoxyethyl) (MOE); k = constrained ethyl (cEt); d = 2'-deoxy (DNA); m = 2'-O-methyl

For this data set, the target named is HSD17B13. Particulars: ASO, HepaRG.

In turn, TATAATTACAACCTGG (sugars k3 d10 k3, PS) registered a target mRNA inhibition (1 µM) of 46%.

The sequence GTGGGATAAACTGTTC (sugars k3 d10 k3, PS) registered a target mRNA inhibition (1 µM) of 52%.

On to GTACAAATTTATGCCA (sugars k3 d10 k3, PS), for which the target mRNA inhibition (1 µM) came out at 45%.

GCGCTTATTAATATCC (sugars k3 d10 k3, PS) registered a target mRNA inhibition (1 µM) of 3%.

Consider TATGTGAAGAGCTGGT (sugars k3 d10 k3, PS), for which the target mRNA inhibition (1 µM) is 63%.

Consider GCCACAGATTTTCTCC (sugars k3 d10 k3, PS), for which the target mRNA inhibition (1 µM) amounted to 49%.

As to “CCGTTTTGGGCTAATG (sugars kkdddddddddkekek, PS)”, the target mRNA inhibition came out at 0% (0.02 µM); 4% (0.078 µM); 36% (0.313 µM); 72% (1 µM); 52% (1.25 µM); 78% (5 µM).

With TAAATACCCTTGGTGG (sugars k3 d10 k3, PS), for the setting “1 µM”, the target mRNA inhibition came to 7%.

As to CATTATCCTTACTCCC (sugars k3 d10 k3, PS), the target mRNA inhibition (1 µM) is 16%.

CAAGAGACACCACCAG (sugars k3 d10 k3, PS) came in with a target mRNA inhibition (1 µM) of 50%.

As to “GTAATAGCCAGTACAG (sugars k3 d9 k3 e1, PS)”, the target mRNA inhibition (1 µM) is 62%.

Under “1 µM”, AGAAGATCGGCTGGAT (sugars k3 d10 k3, PS) displayed a target mRNA inhibition of 29%.

On to CACTAATTTAGTCAAC (sugars k3 d10 k3, PS), for which, for the setting “1 µM”, the target mRNA inhibition was 7%.

CTAACCTGACACATAT (sugars k3 d10 k3, PS) showed a target mRNA inhibition (1 µM) of 18%.

Consider TGGGAAATTGTTGCTG (sugars k3 d10 k3, PS), for which the target mRNA inhibition (1 µM) came out at 38%.

“ATAGCAAGCCAACAGA (sugars kkdddddddddkekek, PS)” gave a target mRNA inhibition (1 µM) of 23%.

The sequence “GTCCAGGTTGAGATAA (sugars k3 d9 k3 e1, PS)” had a target mRNA inhibition (1 µM) of 52%.

As for TTACCCCTGGCTTTTC (sugars k3 d10 k3, PS), the target mRNA inhibition (1 µM) was determined as 26%.

As to “TATCAGACTTCTTACG (sugars kkdddddddddkekek, PS)”, the target mRNA inhibition (1 µM) amounted to 32%.

Sequence ATGTTCATGGCTTTGC (sugars k3 d10 k3, PS) came in with a target mRNA inhibition (1 µM) of 73%.

ATAATACATTAGCAAG (sugars k3 d10 k3, PS): the target mRNA inhibition (1 µM) came out at 7%.

GGCAAACCTTGAATGA (sugars k3 d10 k3, PS) showed a target mRNA inhibition (1 µM) of 61%.

TGCTTACGACAGGTCA (sugars k3 d10 k3, PS): the target mRNA inhibition is 0% (0.02 µM); 21% (0.078 µM); 57% (0.313 µM); 81% (1 µM); 70% (1.25 µM); 90% (5 µM).

On to “TCTCTTGACAATGGTT (sugars kkdddddddddkekek, PS)”, for which the target mRNA inhibition is, setting by setting: (0.02 µM) 15%; (0.078 µM) 25%; (0.313 µM) 43%; (1 µM) 70%; (1.25 µM) 71%; (5 µM) 70%.

Where the note is “1 µM”, TTGTATTTCGCTACTG (sugars k3 d10 k3, PS) returned a target mRNA inhibition of 58%.

For the setting “1 µM”, AAATTATTGCCTGAAC (sugars k3 d10 k3, PS) returned a target mRNA inhibition of 32%.

For the setting “1 µM”, CTGAAAAGCCCTATTC (sugars k3 d10 k3, PS) came in with a target mRNA inhibition of 11%.

For CGTCCAAAAGTGTCCT (sugars k3 d10 k3, PS), the target mRNA inhibition (1 µM) was determined as 53%.

On to ATTTAGTTGGTAGCTT (sugars k3 d10 k3, PS), for which the target mRNA inhibition (1 µM) worked out at 35%.

Regarding AGGAGTAGTGGAGCCA (sugars k3 d10 k3, PS), where the note is “1 µM”, the target mRNA inhibition was found to be 16%.

The sequence “TGCCAAACCAATGTTT (sugars k3 d1 m1 d8 k3, PS)” registered a target mRNA inhibition (1 µM) of 35%.

In the case of “TCTGGGACCAAGGATA (sugars k3 d1 m1 d8 k3, PS)”, where the note is “1 µM”, the target mRNA inhibition was found to be 31%.
